Marks after values point to notes of the source that are not given here.
System: A549 subcutaneous xenograft
Test: Efficacy study in subcutaneous A549 xenograft model (tumor volume, tumor weight, TGI)
Assay type: in vivo, BALB/c nude mice
Conditions: for Volume-based TGI(%) / Weight-based TGI(%): Day 21, P < 0.001
Procedure: The efficacy of compound 82c was studied in vivo for the treatment of A549 subcutaneous xenograft model in BALB/c nude mice. Seventy-five BALB/c nude female mice were injected cell A549 at 1×10^7 per mouse.
Fifty mice were selected and assigned into five groups using randomized block design based upon their tumor volumes and 10 mice per group. The 5 groups were treated p.o. with vehicle (0.5% NaCMC 0.1% Tween pH4), compound 82c 5 mg/kg BIDx21, 12.5 mg/kg BIDx10/QDx11, 25 mg/kg BIDx7/QDx14 and 50 mg/kg QDx10/3 days off/30 mg/kg QDx8.
All mice from 12.5 mg/kg BID were adjusted from BID to QD from treatment Day 11 until to the end of the study. #36˜#40 mice from group 25 mg/kg BID were compound administration holiday due to mice body weight loss. All mice from group 25 mg/kg BID were adjusted from BID to QD from treatment Day 8. All mice from group 50 mg/kg QD were compound administration holiday from Day 11 to Day 13 due to mice body weight loss and this group was adjusted from 50 mg/kg to 30 mg/kg until the end of the study.
Tumor Inoculation. Each mouse was inoculated subcutaneously at the right flank with A549 tumor cells (1×10^7 cells/mouse) in 0.2 mL of base media (F12K) for tumor development. The treatments were started when the tumor size reached 126.94 mm^3 for the tumor efficacy study (Day 14 post inoculation). Fifty tumor-bearing mice were block randomized into 5 groups with 10 mice in each.
Tumor Measurements and Endpoints. The major endpoint was tumor growth delay or cure. Tumor size was measured twice weekly in two dimensions using a caliper, and the volume was expressed in mm^3 using the formula: V=0.5 a×b^2 where a and b were the long and short diameters of the tumor, respectively. The tumor size was then used for calculations of T/C (%) values. T/C (%) was calculated according to the following equation: T/C (%)=TRTV/CRTV×[…] TRTV=TVtreatment-Dn/TVtreatment-D1, CRTV=TVcontrol-Dn/TVcontrol-D1, T/C (%)<42%, it was considered to be effective. The tumor size was then used for calculations of TGI (%) values. TGI (%) was calculated according to the following equation: TGI (%)=(1−(TVTreatment/Dx−TVTreatment/D1)/(TVControl/Dx−TVControl/D1))×100%, TGI[…]58 means this medicine is effective. The tumor weight was then used for calculations of TGI (%) values. TGI (%) was calculated according to the following equation: TGI (%)=(1−TWTreatment/TWControl)×100%
Statistical Analysis. Summary statistics, including mean and the standard error of the mean (SEM), were provided for the tumor volumes of each group at each time point. Statistical analyses of difference in tumor volumes among the groups were conducted on Day 21 after the last dose. Statistical analysis of difference in tumor volume and tumor weight among the groups was conducted. All data was analyzed using GraphPad Prism software. P<0.05 was considered to be statistically significant. A two-way ANOVA combined with Bonferroni post-test was performed to compare tumor volumes among vehicle and all treatment groups. A one-way ANOVA combined with Dunnett's Multiple Comparison Test to compare tumor weight among vehicle and all treatment groups.

[1] = 50 mg/kg QD×10, 3 days off, 30 mg/kg QD×8, p.o.

N#Cc1cc(C(=O)Nc2cc(F)c(=O)n(CC(F)F)c2)sc1C(F)(F)F [Compound 82c, 4-cyano-N-[1-(2,2-difluoroethyl)-5-fluoro-6-oxopyridin-3-yl]-5-(trifluoromethyl)thiophene-2-carboxamide] was tested, and the “Tumor Volume (mm^3), Day 21” value (5 mg/kg BID×21, p.o.) was 737.75 ± 78.79 mm^3, the “Tumor Weight (g), Day 21” value (5 mg/kg BID×21, p.o.) was 0.773 ± 0.052 g and the “Volume-based TGI(%)” value (5 mg/kg BID×21, p.o.) was 57.01* %. The “Weight-based TGI(%)” value (5 mg/kg BID×21, p.o.) was 47.23* %, the “Tumor Volume (mm^3), Day 21” value (12.5 mg/kg BID×10 QD×11, p.o.) was 579.14 ± 59.39 mm^3 and the “Tumor Weight (g), Day 21” value (12.5 mg/kg BID×10 QD×11, p.o.) was 0.609 ± 0.063 g. The “Volume-based TGI(%)” value (12.5 mg/kg BID×10 QD×11, p.o.) was 68.31* %, the “Weight-based TGI(%)” value (12.5 mg/kg BID×10 QD×11, p.o.) was 58.44* % and the “Tumor Volume (mm^3), Day 21” value (25 mg/kg BID×7 QD×14, p.o.) was 469.53 ± 70.97 mm^3. The “Tumor Weight (g), Day 21” value (25 mg/kg BID×7 QD×14, p.o.) was 0.509 ± 0.077 g, the “Volume-based TGI(%)” value (25 mg/kg BID×7 QD×14, p.o.) was 75.87* % and the “Weight-based TGI(%)” value (25 mg/kg BID×7 QD×14, p.o.) was 65.26* %. For the same compound, the “Tumor Volume (mm^3), Day 21” value [1] was 461.87 ± 60.61 mm^3, the “Tumor Weight (g), Day 21” value [1] was 0.496 ± 0.058 g and the “Volume-based TGI(%)” value [1] was 76.56* %. For the same compound, the “Weight-based TGI(%)” value [1] was 66.17* %.

— US20220356174A1, “PYRIDIN-2-ONE COMPOUNDS USEFUL AS SMARCA2 ANTAGONISTS” (Epizyme, Inc., priority 2018, published 2022)
